Experiment: Solubility in cocoa butter/lecithin mixtures
Type: physicochemical
Details: oil or lipid

solubility: < 15 mg/mL
SMILES: Cc1ccccc1-c1cc(N2CCOCC2)ncc1N(C)C(=O)C(C)(C)c1cc(C(F)(F)F)cc(C(F)(F)F)c1 [2-(3,5-bis-trifluoromethyl-phenyl)-N-methyl-N-(6-morpholin-4-yl-4-o-tolyl-pyridin-3-yl)-isobutyramide]
